In the supplement of paper PMC10307832:

Assays:
Assay in all cases: relative viability (nuclei count vs DMSO), 5 days (fraction); higher = more cells survive
Ponatinib + Navitoclax = compound: Cc1ccc(C(=O)Nc2ccc(CN3CCN(C)CC3)c(C(F)(F)F)c2)cc1C#Cc1cnc2cccnn12 [Ponatinib] + CC1(C)CCC(c2ccc(Cl)cc2)=C(CN2CCN(c3ccc(C(=O)NS(=O)(=O)c4ccc(N[C@H](CCN5CCOCC5)CSc5ccccc5)c(S(=O)(=O)C(F)(F)F)c4)cc3)CC2)C1 [Navitoclax] (partner 0.5 µM)
Summary of the method: (§1)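 Lung cancer cell lines were pin-tool dosed in 1536-well plates on the day after seeding, with either a lone drug or a fixed anchor-drug dose plus five library-drug doses (not always all listed) in √10 steps. Nuclei were counted on 4× images after 5 days. Relative viability is the ratio of treated-well to vehicle-well nuclei counts, with each value a median of duplicate plates.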

Ponatinib + Lapatinib = compound: Cc1ccc(C(=O)Nc2ccc(CN3CCN(C)CC3)c(C(F)(F)F)c2)cc1C#Cc1cnc2cccnn12 [Ponatinib] + CS(=O)(=O)CCNCc1ccc(-c2ccc3ncnc(Nc4ccc(OCc5cccc(F)c5)c(Cl)c4)c3c2)o1 [Lapatinib] (partner 2 µM)
Summary of the method: as §1

Pazopanib + Luminespib = compound: Cc1ccc(Nc2nccc(N(C)c3ccc4c(C)n(C)nc4c3)n2)cc1S(N)(=O)=O [Pazopanib] + CCNC(=O)c1noc(-c2cc(C(C)C)c(O)cc2O)c1-c1ccc(CN2CCOCC2)cc1 [Luminespib] (partner 0.01 µM)
Summary of the method: as §1

Pazopanib + Dasatinib = compound: Cc1ccc(Nc2nccc(N(C)c3ccc4c(C)n(C)nc4c3)n2)cc1S(N)(=O)=O [Pazopanib] + Cc1nc(Nc2ncc(C(=O)Nc3c(C)cccc3Cl)s2)cc(N2CCN(CCO)CC2)n1 [Dasatinib] (partner 0.075 µM)
Summary of the method: as §1

With 201T the relative viability (Ponatinib + Navitoclax; first compound 0.002 µM) was 1.2, the relative viability (Ponatinib + Navitoclax; first compound 0.006325 µM) was 1.21 and the relative viability (Ponatinib + Navitoclax; first compound 0.06325 µM) was 1.22. It also gave a relative viability (Ponatinib + Navitoclax; first compound 0.2 µM) of 1.23, a relative viability (Ponatinib + Lapatinib; first compound 0.002 µM) of 1.04 and a relative viability (Ponatinib + Lapatinib; first compound 0.006325 µM) of 1.03. It also gave a relative viability (Ponatinib + Lapatinib; first compound 0.06325 µM) of 1.09, a relative viability (Ponatinib + Lapatinib; first compound 0.2 µM) of 1.02 and a relative viability (Pazopanib + Luminespib; first compound 0.01 µM) of 0.996. It also gave a relative viability (Pazopanib + Luminespib; first compound 0.03162 µM) of 1.1, a relative viability (Pazopanib + Luminespib; first compound 0.1 µM) of 1.07 and a relative viability (Pazopanib + Luminespib; first compound 0.3162 µM) of 1.06. It also gave a relative viability (Pazopanib + Luminespib; first compound 1 µM) of 1.08, a relative viability (Pazopanib + Dasatinib; first compound 0.01 µM) of 0.526 and a relative viability (Pazopanib + Dasatinib; first compound 0.03162 µM) of 0.424. The relative viability (Pazopanib + Dasatinib; first compound 0.1 µM) was 0.568, the relative viability (Pazopanib + Dasatinib; first compound 0.3162 µM) was 0.545 and the relative viability (Pazopanib + Dasatinib; first compound 1 µM) was 0.666.
For NCI-H520, the relative viability (Ponatinib + Navitoclax; first compound 0.002 µM) was 0.946, the relative viability (Ponatinib + Navitoclax; first compound 0.006325 µM) was 1.1 and the relative viability (Ponatinib + Navitoclax; first compound 0.06325 µM) was 0.922. It also gave a relative viability (Ponatinib + Navitoclax; first compound 0.2 µM) of 0.646, a relative viability (Ponatinib + Lapatinib; first compound 0.002 µM) of 0.725 and a relative viability (Ponatinib + Lapatinib; first compound 0.006325 µM) of 0.801. For the same cell line, the relative viability (Ponatinib + Lapatinib; first compound 0.06325 µM) was 0.688, the relative viability (Ponatinib + Lapatinib; first compound 0.2 µM) was 0.531 and the relative viability (Pazopanib + Luminespib; first compound 0.01 µM) was 0.234. The relative viability (Pazopanib + Luminespib; first compound 0.03162 µM) was 0.235, the relative viability (Pazopanib + Luminespib; first compound 0.1 µM) was 0.227 and the relative viability (Pazopanib + Luminespib; first compound 0.3162 µM) was 0.218. It also gave a relative viability (Pazopanib + Luminespib; first compound 1 µM) of 0.214, a relative viability (Pazopanib + Dasatinib; first compound 0.01 µM) of 0.142 and a relative viability (Pazopanib + Dasatinib; first compound 0.03162 µM) of 0.183. It also gave a relative viability (Pazopanib + Dasatinib; first compound 0.1 µM) of 0.213, a relative viability (Pazopanib + Dasatinib; first compound 0.3162 µM) of 0.145 and a relative viability (Pazopanib + Dasatinib; first compound 1 µM) of 0.25.
NCI-H727 was tested, and the relative viability (Ponatinib + Navitoclax; first compound 0.002 µM) was 0.612, the relative viability (Ponatinib + Navitoclax; first compound 0.006325 µM) was 0.53 and the relative viability (Ponatinib + Navitoclax; first compound 0.06325 µM) was 0.472. It also gave a relative viability (Ponatinib + Navitoclax; first compound 0.2 µM) of 0.523, a relative viability (Ponatinib + Lapatinib; first compound 0.002 µM) of 0.794 and a relative viability (Ponatinib + Lapatinib; first compound 0.006325 µM) of 0.825. The relative viability (Ponatinib + Lapatinib; first compound 0.06325 µM) was 1.11, the relative viability (Ponatinib + Lapatinib; first compound 0.2 µM) was 0.77 and the relative viability (Pazopanib + Luminespib; first compound 0.01 µM) was 0.346. For the same cell line, the relative viability (Pazopanib + Luminespib; first compound 0.03162 µM) was 0.634, the relative viability (Pazopanib + Luminespib; first compound 0.1 µM) was 0.381 and the relative viability (Pazopanib + Luminespib; first compound 0.3162 µM) was 0.266. The relative viability (Pazopanib + Luminespib; first compound 1 µM) was 0.262, the relative viability (Pazopanib + Dasatinib; first compound 0.01 µM) was 0.402 and the relative viability (Pazopanib + Dasatinib; first compound 0.03162 µM) was 0.378. The relative viability (Pazopanib + Dasatinib; first compound 0.1 µM) was 0.394, the relative viability (Pazopanib + Dasatinib; first compound 0.3162 µM) was 0.444 and the relative viability (Pazopanib + Dasatinib; first compound 1 µM) was 0.413.
Work on HCC-15 yielded a relative viability (Ponatinib + Navitoclax; first compound 0.002 µM) of 0.671, a relative viability (Ponatinib + Navitoclax; first compound 0.006325 µM) of 0.738 and a relative viability (Ponatinib + Navitoclax; first compound 0.06325 µM) of 0.83. For the same cell line, the relative viability (Ponatinib + Navitoclax; first compound 0.2 µM) was 0.661, the relative viability (Ponatinib + Lapatinib; first compound 0.002 µM) was 0.797 and the relative viability (Ponatinib + Lapatinib; first compound 0.006325 µM) was 0.916. It also gave a relative viability (Ponatinib + Lapatinib; first compound 0.06325 µM) of 0.922, a relative viability (Ponatinib + Lapatinib; first compound 0.2 µM) of 0.901 and a relative viability (Pazopanib + Luminespib; first compound 0.01 µM) of 0.146. It also gave a relative viability (Pazopanib + Luminespib; first compound 0.03162 µM) of 0.242, a relative viability (Pazopanib + Luminespib; first compound 0.1 µM) of 0.366 and a relative viability (Pazopanib + Luminespib; first compound 0.3162 µM) of 0.2. It also gave a relative viability (Pazopanib + Luminespib; first compound 1 µM) of 0.498, a relative viability (Pazopanib + Dasatinib; first compound 0.01 µM) of 0.543 and a relative viability (Pazopanib + Dasatinib; first compound 0.03162 µM) of 0.631. It also gave a relative viability (Pazopanib + Dasatinib; first compound 0.1 µM) of 0.612, a relative viability (Pazopanib + Dasatinib; first compound 0.3162 µM) of 0.67 and a relative viability (Pazopanib + Dasatinib; first compound 1 µM) of 0.692.
NCI-H460 was tested, and the relative viability (Ponatinib + Navitoclax; first compound 0.002 µM) was 1.04, the relative viability (Ponatinib + Navitoclax; first compound 0.006325 µM) was 1.05 and the relative viability (Ponatinib + Navitoclax; first compound 0.06325 µM) was 1.24. The relative viability (Ponatinib + Navitoclax; first compound 0.2 µM) was 1.06, the relative viability (Ponatinib + Lapatinib; first compound 0.002 µM) was 0.942 and the relative viability (Ponatinib + Lapatinib; first compound 0.006325 µM) was 0.853. It also gave a relative viability (Ponatinib + Lapatinib; first compound 0.06325 µM) of 1.08, a relative viability (Ponatinib + Lapatinib; first compound 0.2 µM) of 0.876 and a relative viability (Pazopanib + Luminespib; first compound 0.01 µM) of 0.0281. It also gave a relative viability (Pazopanib + Luminespib; first compound 0.03162 µM) of 0.0326, a relative viability (Pazopanib + Luminespib; first compound 0.1 µM) of 0.033 and a relative viability (Pazopanib + Luminespib; first compound 0.3162 µM) of 0.0276. The relative viability (Pazopanib + Luminespib; first compound 1 µM) was 0.0432, the relative viability (Pazopanib + Dasatinib; first compound 0.01 µM) was 0.274 and the relative viability (Pazopanib + Dasatinib; first compound 0.03162 µM) was 0.472. It also gave a relative viability (Pazopanib + Dasatinib; first compound 0.1 µM) of 0.566, a relative viability (Pazopanib + Dasatinib; first compound 0.3162 µM) of 0.603 and a relative viability (Pazopanib + Dasatinib; first compound 1 µM) of 0.758.
EPLC-272H showed a relative viability (Ponatinib + Navitoclax; first compound 0.002 µM) of 0.989, a relative viability (Ponatinib + Navitoclax; first compound 0.006325 µM) of 1.23 and a relative viability (Ponatinib + Navitoclax; first compound 0.06325 µM) of 1.18. The relative viability (Ponatinib + Navitoclax; first compound 0.2 µM) was 1.05, the relative viability (Ponatinib + Lapatinib; first compound 0.002 µM) was 0.917 and the relative viability (Ponatinib + Lapatinib; first compound 0.006325 µM) was 1.05. The relative viability (Ponatinib + Lapatinib; first compound 0.06325 µM) was 0.957, the relative viability (Ponatinib + Lapatinib; first compound 0.2 µM) was 0.654 and the relative viability (Pazopanib + Luminespib; first compound 0.03162 µM) was 0.281. For the same cell line, the relative viability (Pazopanib + Luminespib; first compound 0.1 µM) was 0.366, the relative viability (Pazopanib + Luminespib; first compound 0.3162 µM) was 0.344 and the relative viability (Pazopanib + Luminespib; first compound 1 µM) was 0.52. For the same cell line, the relative viability (Pazopanib + Dasatinib; first compound 0.03162 µM) was 0.321, the relative viability (Pazopanib + Dasatinib; first compound 0.1 µM) was 0.369 and the relative viability (Pazopanib + Dasatinib; first compound 0.3162 µM) was 0.376. It also gave a relative viability (Pazopanib + Dasatinib; first compound 1 µM) of 0.251.
